Laboratory results reported in patent US7375124B2, “Use of α-phenylthiocarboxylic and α-phenyloxycarboxylic acids with serum-glucose-lowering and serum-lipid-lowering activity” (Sigma-Tau Industrie Farmaceutiche Riunite S.p.A., priority 2002, dated 2008).
Where two headings read alike, the source gives them in different places.

Tests used:
C57BL/KsJ db/db mouse [1] = settings: in vivo
Excerpt: (§1) Plasma levels of glucose, insulin, triglycerides, cholesterol, free fatty acids and urea were checked for a well-matched distribution of mice in the treatment groups.
(§2) At the start of treatment the body weights of the mice were checked and arrangements were made for monitoring water and feed consumption.
(§3) In the course of the experiment, serum glucose levels, oral glucose tolerance test (OGTT) findings, a number of lipid status parameters and weight gain were monitored.

C57BL/KsJ db/db mouse [2] = test: Antidiabetic and serum-lipid-lowering activity in the db/db mouse (Experiments I and II); settings: for Variation % (AUC glucose at OGTT) vs control / AUC glucose at OGTT: OGTT glucose 3 g/kg; for AUC glucose at OGTT / Glucose (plasma) / Fructosamine (plasma) / HDL-choles. (plasma) / Triglycerides (plasma) / Glucose / Final b.w. / Initial b.w.: mean ± S.E.; for Glucose (plasma): postabsorption (fasting 9 a.m. to 4.30 p.m.); for Glucose (plasma) / Variation % (fructosamine) vs control / Variation % (plasma glucose) vs control / Fructosamine (plasma) / HDL-choles. (plasma) / Triglycerides (plasma): 7.5 hours after last treatment; for Glucose: blood; for Final b.w. / Initial b.w.: postabsorption condition; for Variation % (initial b.w.) vs control / Initial b.w.: initial body weight
Excerpt: as §1, §2, §3

mPPARαLBD/Gal4DBD = target: T1, mPPARαLBD/Gal4DBD (Mus musculus, UniProt P23204); test: Transactivation assay mediated by mPPARαLBD/Gal4DBD in COS-7 cells (CAT reporter); type: cell-based
T1 construct: expressed in transfected cells; host or cells: COS-7 (monkey kidney fibroblasts)
T1 sequence (P23204 239-466 limits assumed): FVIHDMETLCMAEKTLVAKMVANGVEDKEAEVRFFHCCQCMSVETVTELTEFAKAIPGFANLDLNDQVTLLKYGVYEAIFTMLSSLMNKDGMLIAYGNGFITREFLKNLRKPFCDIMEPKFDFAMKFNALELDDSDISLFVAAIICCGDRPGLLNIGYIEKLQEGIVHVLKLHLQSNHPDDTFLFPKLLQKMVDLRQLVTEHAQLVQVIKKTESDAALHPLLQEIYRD
Excerpt: In this model a transactivation assay is used in which the expression vector mPPARαLBD/Gal4 DBD allows the synthesis by the transfected cell of a chimeric protein, in which the ligand binding domain (LBD) of PPARα is fused with the DNA binding domain (DBD) of the transcription factor GAL4 of yeast [Luckow B. et al., Nucleic Acids Res. 15, 5490 (1987)]. Simultaneously, a plasmid (pG5CAT) is transfected which contains 5 copies of the high-affinity binding site for GAL4 (also called UAS, upstream activating sequence), upstream of the viral promoter E1b fused with the CAT reporter gene [Moya-Camarena S. Y. et al., J. Lipid Res. 40 (8), 1426-33 (1999)]. This model eliminates interference by possible endogenous receptors.
This is due to the fact that the activation of E1b and the production of CAT will occur exclusively thanks to the interaction of GAL4 DBD with its own response element (UAS). Since the transcription factor GAL4 is not expressed in […] cells, transactivation of the reporter gene can take place only when, as a result of the interaction of a ligand with the LBD of PPARα, the chimeric protein PPARα/GAL4 recognises the UAS sequence on the plasmid pG5CAT. Together with the expression vector and the reporter vector the cells were also transfected with the plasmid pCH110 which provides the internal control for the efficiency of transfection and the normalisation of the results.
A monkey kidney fibroblast cell line (COS-7) was used [Elbrecht A. et al., J. Biol. Chem. 274 (12), 7913-22 (1999)]. The cells were co-transfected with the reporter vector, the expression plasmid coding for the fusion protein Gal4 DBD/PPARαLBD and the control vector pCH110. The cells were exposed to increasing concentrations of the study compounds and CAT activity was evaluated. Untreated cells were used as controls.
Monkey kidney fibroblasts (COS-7) were cultured according to the usual cell culture techniques, at 37° C. in a 5% v/v carbon dioxide atmosphere using as the growth medium DMEM (Dulbecco's modified Eagle's medium) modified with 3.7 g/l of sodium bicarbonate, 4 mM L-glutamine, 4.5 g/l of glucose, 1 mM sodium pyruvate and 10% v/v of foetal bovine serum, in the presence of streptomycin 100 μg/ml and penicillin 100 U/ml final.
The cells were co-transfected using the transfection reagent FuGENE6 (Roche), consisting of a defined mixture of lipids capable of complexing the DNA and of transporting it into the cells. Twenty-four hours prior to transfection the cells were plated at a density of 1.2×10^5 cells/well in 12-well plates and maintained at 37° C. in a 5% v/v CO2 atmosphere. […] Briefly, the transfection mixture containing 0.8 μg of the expression vector, 1.6 μg of the reporter vector, 0.8 μg of the control vector and 9 μl of the FuGENE6 reagent per well was added directly to the cells in the presence of culture medium devoid of serum. After 5 hours, the transfection medium was replaced by 1 ml of culture medium complete with serum and antibiotics in the presence or absence of the molecules to be tested at 3 different concentrations (2, 20 and 100 μM). Wy-14,643 (2 μM), a known ligand of PPARα, was used as the positive reference compound.
After 48 hours' incubation at 37° C. in a 5% v/v CO2 atmosphere, the cells were washed twice with 1 ml of phosphate buffer (PBS) and removed mechanically from the wells in TEN buffer (Tris[hydroxymethyl]aminomethane 10 mM pH 8, ethylenediamine-tetraacetic acid 1 mM pH 8, sodium chloride 0.1 M). After centrifuging for 3 minutes at 1000 rpm, the cells were resuspended in 65 μl of lysis buffer (Tris-HCl 0.25 M, pH 8) and then lysed thanks to three rapid freeze-thaw cycles. The insoluble cellular materials (debris) were removed by centrifuging at 15,000 rpm for 15 minutes at 4° C., and the supernatant was recovered and used for the CAT and β-galactosidase activity assays. […]

[3] = Experiment I, after 12 days' treatment, feeding state, approx. 15 hours after last treatment
[4] = Experiment I, after 12 days' treatment, postabsorption, 8 hours after last treatment
[5] = Experiment I, after 18 days' treatment
[6] = Experiment I, after 18 days' treatment, fasting 18 hours, 5 hours after last treatment
[7] = Experiment I, after 18 days' treatment, fasting 18 hours, 6 hours after last treatment
[8] = Experiment I, after 25 days' treatment
[9] = Experiment I, after 25 days' treatment, postabsorption
[10] = Experiment I, after 12 days' treatment, postabsorption (fasting 9 a.m. to 5 p.m.), 8 hours after last treatment
[11] = Experiment I, db/db mice, oral twice daily, after 12 days' treatment, feeding state, approx. 15 hours after last treatment
[12] = Experiment II, after 11 days' treatment, fasting 18 hours, 5 hours after last treatment
[13] = Experiment II, after 12 days' treatment
[14] = Experiment II, after 12 days' treatment, postabsorption

Row | SMILES | Variation % (glucose) vs control (C57BL/KsJ db/db mouse [2]; [3]) | Variation % (glucose) vs control (C57BL/KsJ db/db mouse [2]; [4]) | Variation % (AUC glucose at OGTT) vs control (C57BL/KsJ db/db mouse [2]; [5]) [%] | AUC glucose at OGTT (C57BL/KsJ db/db mouse [2]; [6]) [a.u.] | Variation % (glucose) vs control (C57BL/KsJ db/db mouse [2]; [7]) [%] | Variation % (HDL-cholesterol) vs control (C57BL/KsJ db/db mouse [2]; [8]) | Variation % (triglycerides) vs control (C57BL/KsJ db/db mouse [2]; [8]) [%] | Glucose (plasma) (C57BL/KsJ db/db mouse [2]; [8]) | Variation % (fructosamine) vs control (C57BL/KsJ db/db mouse [2]; [9]) | Variation % (plasma glucose) vs control (C57BL/KsJ db/db mouse [2]; [9]) | Fructosamine (plasma) (C57BL/KsJ db/db mouse [2]; [9]) | HDL-choles. (plasma) (C57BL/KsJ db/db mouse [2]; [9]) | Triglycerides (plasma) (C57BL/KsJ db/db mouse [2]; [9]) [mg/dL] | Glucose (C57BL/KsJ db/db mouse [2]; [10]) [mg/dL] | Glucose (C57BL/KsJ db/db mouse [2]; [7]) | Glucose (C57BL/KsJ db/db mouse [2]; [11]) [mg/dL] | Activation of reporter gene CAT as a percentage of the reference compound (WY-14,643 2 μM = 100%) (mPPARαLBD/Gal4DBD; 2 μM) [%] | Activation of reporter gene CAT as a percentage of the reference compound (WY-14,643 2 μM = 100%) (mPPARαLBD/Gal4DBD; 20 μM) [%] | Activation of reporter gene CAT as a percentage of the reference compound (WY-14,643 2 μM = 100%) (mPPARαLBD/Gal4DBD; 100 μM) [%] | also measured
1 | CC(C)(Oc1ccc(CCNC(=O)c2ccc(Cl)cc2)cc1)C(=O)O [Bezafibrate, bezafibrate, reference compound] | +3% | +2% | −13 | 44476 ± 1827 | −13 | +14% | −7 | 536 ± 22 mg/dL | +26% | +18% | 1.01 ± 0.04Δ mM | 93.8 ± 3.8 mg/dL | 88.3 ± 12.7 | 421 ± 30 | 298 ± 21 mg/dL | 503 ± 21 |  |  |  | Final b.w. (C57BL/KsJ db/db mouse [1]): 35.2 ± 1.3 g; Initial b.w. (C57BL/KsJ db/db mouse [1]): 33.7 ± 0.7 g; Variation % (final b.w.) vs control (C57BL/KsJ db/db mouse [1]): +24%; Variation % (initial b.w.) vs control (C57BL/KsJ db/db mouse [1]): +6%
2 | COC(=O)C(C)(C)Sc1cccc(OCCc2ccc(Cl)cc2)c1 [Example 1, methyl 2-[3-[2-(4-chlorophenyl)ethoxy]phenylthio]isobutyrate] | −38% | −48% | −52 | 24527 ± 889 | −58 | +20% | −53 | 206 ± 8Δ mg/dl | −49% | −55% | 0.41 ± 0.04 mM | 98.0 ± 3.5[…] mg/dl | 45.3 ± 2.3 | 216 ± 16 | 144 ± 3Δ mg/dl | 303 ± 16 | 44.9 | 129.9 | 232.1 | Variation % (final b.w.) vs control (C57BL/KsJ db/db mouse [2]; [8]): +27%; Final b.w. (C57BL/KsJ db/db mouse [2]; Experiment I, final body weight after 25 days' treatment): 35.9 ± 0.6 g; Variation % (initial b.w.) vs control (C57BL/KsJ db/db mouse [2]; Experiment I): +2%; Initial b.w. (C57BL/KsJ db/db mouse [2]; Experiment I): 32.3 ± 0.3 g; Variation % (glucose) vs control (C57BL/KsJ db/db mouse [2]; Experiment II, after 9 days' treatment, postabsorption, 8 hours after last treatment): −36%; Variation % (AUC glucose at OGTT) vs control (C57BL/KsJ db/db mouse [2]; Experiment II, after 11 days' treatment): −40%; AUC glucose at OGTT (C57BL/KsJ db/db mouse [2]; [12]): 25929 ± 1299 a.u.; Variation % (glucose) vs control (C57BL/KsJ db/db mouse [2]; [12]): −36%; Variation % (HDL-cholesterol) vs control (C57BL/KsJ db/db mouse [2]; [13]): +43%; Variation % (final b.w.) vs control (C57BL/KsJ db/db mouse [2]; [13]): +7%; Variation % (triglycerides) vs control (C57BL/KsJ db/db mouse [2]; [13]): −48%; Glucose (plasma) (C57BL/KsJ db/db mouse [2]; [13]): 356 ± 30 mg/dL; Variation % (plasma glucose) vs control (C57BL/KsJ db/db mouse [2]; [14]): −38%; HDL-choles. (plasma) (C57BL/KsJ db/db mouse [2]; [14]): 123.7 ± 1.9 mg/dL; Triglycerides (plasma) (C57BL/KsJ db/db mouse [2]; [14]): 45.1 ± 1.4 mg/dL; Glucose (C57BL/KsJ db/db mouse [2]; Experiment II, after 9 days' treatment, postabsorption (fasting 9 a.m. to 5 p.m.), 8 hours after last treatment): 223 ± 20Δ mg/dl; Glucose (C57BL/KsJ db/db mouse [2]; [12]): 158 ± 7 mg/dL; Final b.w. (C57BL/KsJ db/db mouse [2]; Experiment II, final body weight after 12 days' treatment): 40.3 ± 0.8[…] g; Variation % (initial b.w.) vs control (C57BL/KsJ db/db mouse [2]; Experiment II): −1%; Initial b.w. (C57BL/KsJ db/db mouse [2]; Experiment II): 38.6 ± 0.4 g
3 | COC(=O)C(C)(C)Sc1cccc(OCCc2ccc(Cl)cc2Cl)c1 [Example 4, methyl 2-[3-(2-(2,4-dichlorophenyl)ethoxy)phenylthio]isobutyrate] |  |  |  |  |  |  |  |  |  |  |  |  |  |  |  |  | 113.1 | 284.9 | 421 | 
